Test: wn = mass fraction of the nth substance listed
Settings: Pendant drop shape

[I-].[K+] [potassium iodide] + O
surface tension liquid-gas [mN/m]
Settings	293.15 K	298.15 K	303.15 K	313.15 K	323.15 K	333.15 K
w1 = 0.01	73.24	72.53	71.81	70.45	68.95	67.52
w1 = 0.02	73.65	73	72.35	71.05	69.69	68.36
w1 = 0.03	74.15	73.57	72.85	71.62	70.32	68.95
w1 = 0.04	75.05	74.45	73.7	72.4	71.2	69.75
w1 = 0.05	75.44	74.79	74	72.7	71.47	69.98
w1 = 0.06	76.12	75.4	74.75	73.39	72.15	70.53
w1 = 0.07	76.76	76.04	75.39	74.09	72.6	70.97
w1 = 0.08	77.23	77.03	76.15	74.96	73.86	72.7
w1 = 0.09	78.32	77.68	77.09	75.86	74.62	73.19
w1 = 0.1	79.11	78.6	78	76.83	75.66	74.36
w1 = 0.11	80.21	79.5	78.84	77.67	76.43	75.26
w1 = 0.12	81.04	80.2	79.51	78.4	77.16	75.86

O [water] + [Br-].[Na+]
w2 = 0
Settings	surface tension liquid-gas [mN/m]
293.15 K	72.75
303.15 K	71.15
313.15 K	69.55
323.15 K	67.9
333.15 K	66.17
343.15 K	64.39
353.15 K	62.61

From the NIST ThermoML archive (doi:10.1021/acs.jced.7b00503)
